This note sets out measurements from patent publication US8933142B2, “Low-extractable thioxanthones” (Lamberti Spa, priority 2010, dated 2015).

The nature of data set [1]: Photo DSC reactivity in tripropylene glycol diacrylate. As to conditions: for Peak height / ΔH (peak area): 0.1% w/w compound, 0.1% w/w EDB, LED 400 nm, 24.3 mW/cm^2; for ΔH of polymerization of isomer 3 relative to isomer 1: Photo DSC peak area; for ΔH of polymerization of isomer 3 relative to isomer 1 / Reactivity of isomer 3 relative to isomer 1: isomer 3 versus isomer 1; for Reactivity of isomer 3 relative to isomer 1: Photo DSC peak height. An excerpt: Comparison of the reactivity of the 1 and 3 derivatives of thioxanthone by means of Photo DSC.
The compound of Example 1 (dodecyl 7-methyl-9-oxo-9H-thioxanthene-3-carboxylate) and the compound of Example 8 (dodecyl 7-methyl-9-oxo-9H-thioxanthene-1-carboxylate, comparative) were formulated and evaluated by PhotoDSC.
The compound of Example 5 (N,N-diisobutyl-7-methyl-9-oxo-9H-thioxanthene-3-carboxamide) and the compound of Example 7 (N,N-diisobutyl-7-methyl-9-oxo-9H-thioxanthene-1-carboxamide, comparative) were also formulated and compared by PhotoDSC.
The formulations were prepared dissolving in tripropylene glycol diacrylate the compounds described in the Examples 1, 8, 5 and 7 at a concentration of 0.1% w/w and EDB (Ethyl 4-dimethylamino-benzoate) at a concentration of 0.1% w/w.
About 1 mg of formulation (exactly weighted) was kept into a DSC aluminum panel and analyzed by a Mettler DSC1 calorimeter equipped with a 400 nm LED with a power of 450 mW. The LED was set in order to irradiate the formulation with an intensity of 24.3 mW/cm^2.
During the exposition to LED at 400 nm the heat developed from the polymerization of formulations prepared with the compounds described in the Examples 1, 8, 5 and 7 was recorded as peak height and peak area (ΔH). The peak height is proportional to the rate of polymerization: higher is the peak—faster is the polymerization.
For orientation: DSC measures the heat that a sample takes up or gives off during a temperature scan.

Data set [2] is described as follows: Formulability through solubility in methylene chloride. Particulars: room temperature, stirring.
Procedure: 10 g of the thioxanthone derivatives under investigation are weighed and suspended in the same amount of solvent; the mixture is maintained under stirring at room temperature.
After 2 min the clearness of the solution is evaluated: if the sample is not dissolved further aliquots of solvent are added, keeping the mixture under stirring for two min after each addition until complete solubilization.
Data set [3] can be described thus: FT-IR degree of polymerization in a pigmented photopolymerizable composition (as photoinitiator). Particulars: 3% photoinitiator, 3% Esacure A198, cyan ink, 3 μm film, Hg/Xe lamp 120 W/cm. The procedure:
Evaluation of the Derivatives of Thioxanthone in a Pigmented Photopolymerizable Composition by Means of FT-IR.
Pigmented photopolymerizable compositions are prepared by mixing 3% by weight of both the photoinitiators of formula I (Examples 1-6) and the coinitiator Esacure A198 (bis-N,N-[4-dimethyl aminobenzoyl)oxyethylen-1-yl]-methylamine), commercialized by Lamberti S.p.A, and up to 100% by weight of a cyan ink for off-set inking.
Isopropyl thioxanthone (ITX) is chosen as reference photoinitiator.
The photopolymerizable compositions are milled with a three cylinders mill (laboratory scale) in order to homogenize the mix and applied with a thickness of 3 μm on a soft polyethylene substrate by means of a film coater (RK Print Coater Instrument Ltd).
The sample, placed in the sample lodgment of a FT-IR (FT-IR 430-Jasco), is exposed to a Mercury/Xenon Vapors light source at high pressure to 120 W/cm (L8868 Light-cure, Hamamatsu) set at a distance of 8 cm from the sample and at an angle of 30°.
IR spectra are acquired at constant time intervals during the photopolymerization and the reduction over time of the peak area at 1408 cm^−1 assigned to the acrylic double bond was determined by IR software (Perkin Elmer, Spectrum ONE v. 2.0). This allows to quantify the degree of polymerization over the time and therefore the efficiency of the photoinitiator.

The nature of data set [4]: FT-IR degree of polymerization in a pigmented composition (as sensitizer of Esacure 1001). As to conditions: 0.5% sensitizer, 3% Esacure 1001, 3% Esacure A 198, cyan ink, 3 μm film. The procedure:
The compounds described in the examples were evaluated also as sensitizer in a pigmented composition as described below.
Pigmented photopolymerizable compositions are prepared by mixing 3% by weight of both Esacure 1001 and coinitiator Esacure A 198 (both commercialized by Lamberti S.p.A.), 0.5% by weight of derivatives of thioxanthone of the Examples listed in Table 1 and up to 100% by weight of a cyan ink for off-set inking. ITX is used as reference sensitizer.
The photopolymerizable compositions are milled with a three cylinders mill (laboratory scale) in order to homogenize the mix and applied with a thickness of 3 μm on a soft polyethylene substrate by means of film coater (RK Print Coater Instrument Ltd).
The sample, placed in the sample lodgment of a FT-IR (FT-IR 430-Jasco), is exposed to a Mercury/Xenon Vapors light source at high pressure to 120 W/cm (L8868 Light-cure, Hamamatsu) set at a distance of 8 cm from the sample with an angle of 30°.
IR spectra were acquired at constant time during the photopolymerization and the reduction over the time of the area of the peak at 1408 cm^−1 assigned to the acrylic double bond is determined with the help of a IR software (Perkin Elmer, Spectrum ONE v. 2.0).
This allows to quantify the degree of polymerization over time and therefore the efficiency of the photoinitiator.

Data set [5] in a line: Through-cure (thumb twist test), as sensitizer. As to conditions: 0.5% thioxanthone derivative, 3% Esacure A 198, 3% Esacure 1001, cyan ink, 3 μm on coated cardboard, Hg lamp 120 W/cm. The procedure:
(§1) Evaluation of “Through-Cure”
(§2) The “through cure” test evaluates the degree of cross-linking of the deeper layers of the formulate (film) spread on the substrate. The film is considered completely crosslinked when it is not detached from the substrate or damaged by the “thumb twist test”. The test is carried out at various speeds of exposure to UV source. The higher the speed the higher the reactivity of the system.
(§3) The products described in the examples were tested both as photoinitiators and sensitizers. For the evaluation as photoinitiator the following formulation is employed (by weight): 3% of derivative of thioxanthone of formula I, 3% of Esacure A 198, up to 100% with cyan ink for off-set printing. For the evaluation as sensitizers the formulation is composed as follows (by weight): 0.5% of derivative of thioxanthone of formula I, 3% of Esacure A 198, 3% of Esacure 1001, up to 100% with cyan ink for off-set printing.
(§4) The resulting mixtures are milled with a three cylinders mill (laboratory scale) and applied on a coated cardboard with a thickness of 3 μm by means of film coater (RK Print Coater Instrument Ltd), then exposed at different speed to a mercury vapors lamp at high pressure 120 W/cm.
(§5) ITX, in the same amounts, is chosen as reference.

Data set [6] can be described thus: Through-cure (thumb twist test), as photoinitiator. Particulars: 3% thioxanthone derivative, 3% Esacure A 198, cyan ink, 3 μm on coated cardboard, Hg lamp 120 W/cm. The procedure: as §1, §2, §3, §4, §5

With `CCCCCCCCCCCCOC(=O)c1cccc2sc3ccc(C)cc3c(=O)c12` [Example 8, dodecyl 7-methyl-9-oxo-9H-thioxanthene-1-carboxylate], in data set [1], the Peak height was 38.4 W/g and the “ΔH (peak area)” value is on record as 208.5 J/g.

In turn, `Cc1ccc2sc3cc(C(=O)N4CCN(C)CC4)ccc3c(=O)c2c1` [Example 6, 4-methyl-piperazinyl 7-methyl-9-oxo-9H-thioxanthene-3-carboxamide] displayed a Solubility in data set [2] of 5%.

As for `Cc1ccc2sc3cccc(C(=O)N(CC(C)C)CC(C)C)c3c(=O)c2c1` [Example 7, N,N-diisobutyl-7-methyl-9-oxo-9H-thioxanthene-1-carboxamide], in data set [1], the Peak height is given as 11.1 W/g and the “ΔH (peak area)” value came to 111.4 J/g.

As for `C=CCOC(=O)c1ccc2c(=O)c3cc(C)ccc3sc2c1` [Example 4, allyl 7-methyl-9-oxo-9H-thioxanthene-3-carboxylate], in data set [3], the “% degree of polymerization after 1 sec” value was 5.9%, the “% degree of polymerization after 2 sec” value is 18.3% and the “% degree of polymerization after 5 sec” value is 35.3%. In data set [4], the “% degree of polymerization after 1 sec” value stood at 20.6%, the “% degree of polymerization after 2 sec” value was 33.2% and the “% degree of polymerization after 5 sec” value turned out to be 43.2%. Further, the Solubility in data set [2] was determined as 5%. Besides, the “Through-cure (sensitizer)” value in data set [5] came to 60 m/min. The “Through-cure (photoinitiator)” value in data set [6] was 70 m/min.

With `CCCCCOC(=O)c1ccc2c(=O)c3cc(C)ccc3sc2c1` [Example 2, pentyl 7-methyl-9-oxo-9H-thioxanthene-3-carboxylate], in data set [3], the “% degree of polymerization after 1 sec” value worked out at 2.5%, the “% degree of polymerization after 2 sec” value worked out at 3.1% and the “% degree of polymerization after 5 sec” value is recorded as 7.2%. In addition, in data set [4], the “% degree of polymerization after 1 sec” value is “Not reactive”, the “% degree of polymerization after 2 sec” value was “Not reactive” and the “% degree of polymerization after 5 sec” value is “Not reactive”. The same compound registered a Solubility in data set [2] of 33%. The “Through-cure (sensitizer)” value in data set [5] was “Not reactive”. For the same compound, in data set [6], the “Through-cure (photoinitiator)” value was found to be 5 m/min.

Turning to `Cc1ccc2sc3cc(C(=O)N(CC(C)C)CC(C)C)ccc3c(=O)c2c1` [Example 5, N,N-disobutyl 7-methyl-9-oxo-9H-thioxanthene-3-carboxamide], in data set [3], the “% degree of polymerization after 1 sec” value was found to be 18.0%, the “% degree of polymerization after 2 sec” value amounted to 33.7% and the “% degree of polymerization after 5 sec” value is 45.9%. Also, in data set [4], the “% degree of polymerization after 1 sec” value is recorded as 22.3%, the “% degree of polymerization after 2 sec” value is 36.7% and the “% degree of polymerization after 5 sec” value is listed as 45.8%. Also, in data set [2], the Solubility is listed as 50%. In data set [5], the “Through-cure (sensitizer)” value is recorded as 60 m/min. In addition, in data set [1], the Peak height amounted to 39.0 W/g, the “ΔH (peak area)” value is on record as 224.8 J/g, the “ΔH of polymerization of isomer 3 relative to isomer 1” value is on record as “about 2” and the “Reactivity of isomer 3 relative to isomer 1” value is given as 3.5 times. For the same compound, the “Through-cure (photoinitiator)” value in data set [6] was determined as 90 m/min.

As to `CCCCCCCCCCCCOC(=O)c1ccc2c(=O)c3cc(C)ccc3sc2c1` [Example 1, dodecyl-7-methyl-9-oxo-9H-thioxanthene-3-carboxylate], in data set [3], the “% degree of polymerization after 1 sec” value came out at 19.6%, the “% degree of polymerization after 2 sec” value is 36.1% and the “% degree of polymerization after 5 sec” value is 47.2%. Also, in data set [4], the “% degree of polymerization after 1 sec” value turned out to be 17.8%, the “% degree of polymerization after 2 sec” value was 29.9% and the “% degree of polymerization after 5 sec” value amounted to 40.7%. The same compound yielded a Solubility in data set [2] of 33%. Further, the “Through-cure (sensitizer)” value in data set [5] is 53 m/min. Besides, in data set [1], the Peak height is recorded as 58.9 W/g, the “ΔH (peak area)” value is listed as 266.4 J/g, the “ΔH of polymerization of isomer 3 relative to isomer 1” value is 1.2 and the “Reactivity of isomer 3 relative to isomer 1” value is recorded as “about 1.5 times”. In addition, the “Through-cure (photoinitiator)” value in data set [6] amounted to 85 m/min.

Turning to `COC(=O)c1ccc2c(=O)c3cc(C)ccc3sc2c1` [Example 3, methyl 7-methyl-9-oxo-9H-thioxanthene-3-carboxylate], in data set [3], the “% degree of polymerization after 1 sec” value is “Insoluble”, the “% degree of polymerization after 2 sec” value is listed as “Insoluble” and the “% degree of polymerization after 5 sec” value is on record as “Insoluble”. For the same compound, in data set [4], the “% degree of polymerization after 1 sec” value is recorded as “Insoluble”, the “% degree of polymerization after 2 sec” value is “Insoluble” and the “% degree of polymerization after 5 sec” value is on record as “Insoluble”. Further, the Solubility result in data set [2] is reported as “insoluble”. Also, in data set [5], the “Through-cure (sensitizer)” value was “Insoluble”. In addition, the “Through-cure (photoinitiator)” value in data set [6] is listed as “Insoluble”.

Take `CC(C)c1ccc2sc3ccccc3c(=O)c2c1` [ITX, isopropyl thioxanthone, reference compound]: in data set [3], the “% degree of polymerization after 1 sec” value is listed as 10.0%, the “% degree of polymerization after 2 sec” value is listed as 18.9% and the “% degree of polymerization after 5 sec” value is 33.0%. Moreover, in data set [4], the “% degree of polymerization after 1 sec” value amounted to 19.6%, the “% degree of polymerization after 2 sec” value came to 31.4% and the “% degree of polymerization after 5 sec” value amounted to 40.9%. In addition, the “Through-cure (sensitizer)” value in data set [5] is recorded as 60 m/min. Moreover, the “Through-cure (photoinitiator)” value in data set [6] was 95 m/min.
